Experiments:
[1] = DRUGMATRIX: Phorbol Ester radioligand binding (ligand: [3H] PDBu); assay type: cell membranes, Mus musculus, ICR, Brain, Membrane; conditions: Not Active = under 50% inhibition at 10 µM
[2] = target: T1, Angiotensin-converting enzyme (Oryctolagus cuniculus, UniProt P12822); assay type: tissue-based, Lung;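 note: enzymatic inhibition of angiotensin-converting enzyme measured with FAPGG as the substrate; in other assays of this panel Not Active means under 50% inhibition at 10 µM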
T1 sequence (P12822 whole entry): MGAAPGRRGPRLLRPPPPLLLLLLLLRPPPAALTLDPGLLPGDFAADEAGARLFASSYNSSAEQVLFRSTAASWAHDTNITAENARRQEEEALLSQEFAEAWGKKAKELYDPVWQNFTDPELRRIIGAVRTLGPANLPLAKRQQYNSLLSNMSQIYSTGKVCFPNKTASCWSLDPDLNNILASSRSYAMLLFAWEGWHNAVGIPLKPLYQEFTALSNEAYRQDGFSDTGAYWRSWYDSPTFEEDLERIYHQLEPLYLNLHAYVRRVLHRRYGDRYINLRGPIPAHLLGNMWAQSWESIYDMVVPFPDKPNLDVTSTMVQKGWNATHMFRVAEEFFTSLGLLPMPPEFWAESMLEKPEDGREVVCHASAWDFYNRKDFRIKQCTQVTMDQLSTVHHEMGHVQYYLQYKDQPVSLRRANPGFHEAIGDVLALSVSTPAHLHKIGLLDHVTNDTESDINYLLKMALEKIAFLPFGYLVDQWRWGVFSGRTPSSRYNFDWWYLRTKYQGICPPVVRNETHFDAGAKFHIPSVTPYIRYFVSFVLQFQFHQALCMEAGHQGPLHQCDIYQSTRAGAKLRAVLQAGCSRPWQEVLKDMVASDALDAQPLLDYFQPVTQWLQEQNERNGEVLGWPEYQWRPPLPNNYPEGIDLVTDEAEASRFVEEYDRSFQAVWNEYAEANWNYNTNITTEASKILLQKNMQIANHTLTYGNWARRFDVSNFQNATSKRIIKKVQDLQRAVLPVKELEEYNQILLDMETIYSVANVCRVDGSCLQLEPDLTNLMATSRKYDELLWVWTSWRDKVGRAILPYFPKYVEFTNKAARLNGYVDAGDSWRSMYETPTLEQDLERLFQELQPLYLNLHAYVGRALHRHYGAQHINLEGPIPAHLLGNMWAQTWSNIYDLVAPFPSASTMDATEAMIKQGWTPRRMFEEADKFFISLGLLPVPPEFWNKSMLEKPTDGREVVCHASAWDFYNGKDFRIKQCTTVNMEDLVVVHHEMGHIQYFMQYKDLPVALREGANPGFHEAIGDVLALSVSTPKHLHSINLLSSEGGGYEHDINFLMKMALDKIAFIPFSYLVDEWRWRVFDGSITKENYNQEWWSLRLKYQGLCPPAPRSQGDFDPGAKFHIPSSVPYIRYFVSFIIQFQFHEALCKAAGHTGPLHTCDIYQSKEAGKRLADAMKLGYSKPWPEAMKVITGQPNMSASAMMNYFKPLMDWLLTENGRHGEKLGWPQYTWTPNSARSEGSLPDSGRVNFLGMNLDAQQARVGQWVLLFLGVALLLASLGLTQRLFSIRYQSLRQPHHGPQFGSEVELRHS

[3] = target: Glycine receptor (Rattus norvegicus, UniProt P22771+P24524+P07727+P20781); assay type: cell membranes, Wistar, Spinal cord, Membrane; note: in other assays of this panel Not Active means under 50% inhibition at 10 µM
[4] = target: Beta-1 adrenergic receptor (Homo sapiens, UniProt P08588); test: DRUGMATRIX: Adrenergic beta1 radioligand binding (ligand: [125I] Cyanopindolol); assay type: cell membranes, CHO-K1, Membrane; conditions: Not Active = under 50% inhibition at 10 µM
Sequence of Beta-1 adrenergic receptor (P08588 whole entry): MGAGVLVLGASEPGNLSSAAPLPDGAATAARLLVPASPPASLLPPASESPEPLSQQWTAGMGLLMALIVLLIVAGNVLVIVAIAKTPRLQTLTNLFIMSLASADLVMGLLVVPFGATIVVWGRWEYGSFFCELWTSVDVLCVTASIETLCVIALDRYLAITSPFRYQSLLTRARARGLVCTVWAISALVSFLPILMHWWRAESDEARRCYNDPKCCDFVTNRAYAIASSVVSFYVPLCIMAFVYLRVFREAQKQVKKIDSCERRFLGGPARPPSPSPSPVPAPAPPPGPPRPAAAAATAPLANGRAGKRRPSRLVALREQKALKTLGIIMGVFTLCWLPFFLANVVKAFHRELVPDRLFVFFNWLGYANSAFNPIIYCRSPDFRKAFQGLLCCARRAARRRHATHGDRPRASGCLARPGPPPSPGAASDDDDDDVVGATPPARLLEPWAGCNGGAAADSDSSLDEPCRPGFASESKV

[5] = target: T2, Neutrophil elastase (Homo sapiens, UniProt P08246); assay type: tissue-based;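 note: inhibition of neutrophil elastase enzyme activity, measured with a p-nitroanilide-linked peptide substrate; in other assays of this panel Not Active means under 50% inhibition at 10 µM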
T2 sequence (P08246 whole entry): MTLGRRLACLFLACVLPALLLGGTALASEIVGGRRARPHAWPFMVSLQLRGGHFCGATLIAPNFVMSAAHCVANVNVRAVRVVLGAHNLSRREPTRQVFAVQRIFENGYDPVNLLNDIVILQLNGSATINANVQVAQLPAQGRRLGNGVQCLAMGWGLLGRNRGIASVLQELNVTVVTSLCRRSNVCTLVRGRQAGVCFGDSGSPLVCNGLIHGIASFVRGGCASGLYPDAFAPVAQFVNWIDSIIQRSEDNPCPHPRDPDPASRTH

[6] = target: T3, Interstitial collagenase (Homo sapiens, UniProt P03956); assay type: tissue-based, Rheumatoid synovial fibroblasts;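 note: MMP-1 enzyme inhibition assay using a peptide substrate; in other assays of this panel Not Active means under 50% inhibition at 10 µM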
T3 sequence (P03956 whole entry): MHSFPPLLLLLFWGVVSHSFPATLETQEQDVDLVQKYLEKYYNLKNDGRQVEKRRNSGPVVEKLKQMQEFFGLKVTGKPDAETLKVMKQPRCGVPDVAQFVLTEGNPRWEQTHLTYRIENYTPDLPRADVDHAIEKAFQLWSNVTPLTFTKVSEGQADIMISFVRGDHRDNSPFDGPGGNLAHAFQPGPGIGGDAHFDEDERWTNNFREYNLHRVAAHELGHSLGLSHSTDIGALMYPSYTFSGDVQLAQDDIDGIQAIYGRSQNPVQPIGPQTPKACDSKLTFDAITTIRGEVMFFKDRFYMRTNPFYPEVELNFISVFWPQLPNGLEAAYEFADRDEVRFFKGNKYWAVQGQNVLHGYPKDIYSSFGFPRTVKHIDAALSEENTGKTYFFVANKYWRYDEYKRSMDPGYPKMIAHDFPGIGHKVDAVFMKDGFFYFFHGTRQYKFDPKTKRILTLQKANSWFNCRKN

[7] = DRUGMATRIX: Glutamate, NMDA, Phencyclidine radioligand binding (ligand: [3H] TCP); assay type: cell membranes, Rattus norvegicus, Wistar, Cerebral cortex, Membrane; conditions: Not Active = under 50% inhibition at 10 µM
[8] = target: Receptor tyrosine-protein kinase erbB-2 (Homo sapiens, UniProt P04626); test: biochemical; assay type: cell-based, Insect cells
Sequence of Receptor tyrosine-protein kinase erbB-2 (P04626 whole entry): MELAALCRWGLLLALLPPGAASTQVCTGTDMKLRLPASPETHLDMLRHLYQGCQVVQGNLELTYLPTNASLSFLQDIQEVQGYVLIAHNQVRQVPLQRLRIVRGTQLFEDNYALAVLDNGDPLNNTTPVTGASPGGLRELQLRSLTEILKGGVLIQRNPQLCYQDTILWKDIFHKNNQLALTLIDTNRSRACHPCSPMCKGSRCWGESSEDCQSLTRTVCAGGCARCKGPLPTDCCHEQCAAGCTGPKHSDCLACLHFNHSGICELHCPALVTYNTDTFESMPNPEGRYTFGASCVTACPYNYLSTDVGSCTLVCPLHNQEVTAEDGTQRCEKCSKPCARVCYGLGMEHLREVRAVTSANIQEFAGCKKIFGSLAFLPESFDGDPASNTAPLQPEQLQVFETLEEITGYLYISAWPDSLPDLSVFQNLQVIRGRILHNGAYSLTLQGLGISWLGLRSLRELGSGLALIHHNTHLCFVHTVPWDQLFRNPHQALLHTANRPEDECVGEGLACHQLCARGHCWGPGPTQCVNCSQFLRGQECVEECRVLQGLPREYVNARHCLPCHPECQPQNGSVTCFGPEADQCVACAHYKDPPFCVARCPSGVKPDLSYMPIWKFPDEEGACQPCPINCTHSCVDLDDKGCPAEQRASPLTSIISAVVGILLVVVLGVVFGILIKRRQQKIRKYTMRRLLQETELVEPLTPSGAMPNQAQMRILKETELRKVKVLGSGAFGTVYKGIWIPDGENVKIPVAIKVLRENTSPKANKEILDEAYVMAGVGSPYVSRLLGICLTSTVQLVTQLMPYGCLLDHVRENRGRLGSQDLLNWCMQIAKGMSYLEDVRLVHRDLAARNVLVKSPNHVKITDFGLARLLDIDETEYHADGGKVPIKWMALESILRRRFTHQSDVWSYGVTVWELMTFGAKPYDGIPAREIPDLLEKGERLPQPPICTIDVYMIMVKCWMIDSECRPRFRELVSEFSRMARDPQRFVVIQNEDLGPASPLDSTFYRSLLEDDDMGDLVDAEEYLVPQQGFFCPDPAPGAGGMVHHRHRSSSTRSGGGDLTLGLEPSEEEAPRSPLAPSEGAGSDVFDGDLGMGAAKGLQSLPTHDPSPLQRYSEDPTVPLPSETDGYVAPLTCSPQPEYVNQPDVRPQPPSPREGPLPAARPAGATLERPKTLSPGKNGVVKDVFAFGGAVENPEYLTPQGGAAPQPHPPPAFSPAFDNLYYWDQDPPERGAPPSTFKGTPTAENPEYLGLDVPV

Row | Structure (SMILES) | IC50 [1] | Ki [1] | IC50 [2] | IC50 [3] | IC50 ([4]; read-out: IC50) [nM] | Ki ([4]; read-out: Ki) [nM] | IC50 [5] | IC50 [6] | IC50 [7] | Ki [7] | IC50 ([8]; insect cells) | IC50 ([4]; cho-k1) | IC50 ([8]; read-out: IC50) [nM]
1 | CC(C)C[C@H]1C(=O)N2CCC[C@H]2[C@]2(O)O[C@](NC(=O)[C@@H]3C=C4c5cccc6[nH]c(Br)c(c56)C[C@H]4N(C)C3)(C(C)C)C(=O)N12 [BROMOCRIPTINE] | Not Active | Not Active | Not Active | Not Active | 2400 | 1390 | Not Active | Not Active | Not Active | Not Active | Not Active |  | 
2 | CS(=O)(=O)OCCCCOS(C)(=O)=O [BUSULFAN] | Not Active | Not Active | Not Active | Not Active |  |  | Not Active | Not Active | Not Active | Not Active | Not Active | Not Active | 
3 | O=C(/C=C/c1ccc(O)c(O)c1)OCCc1ccccc1 [CAFFEIC ACID PHENETHYL ESTER] | Not Active | Not Active | Not Active | Not Active |  |  | Not Active | Not Active | Not Active | Not Active |  | Not Active | 1330
4 | COc1cc(CNC(=O)CCCC/C=C/C(C)C)ccc1O [CAPSAICIN] | Not Active | Not Active | Not Active | Not Active |  |  | Not Active | Not Active | Not Active | Not Active | Not Active | Not Active | 
5 | NC(=O)N1c2ccccc2C=Cc2ccccc21 [CARBAMAZEPINE] | Not Active | Not Active | Not Active | Not Active |  |  | Not Active | Not Active | Not Active | Not Active | Not Active | Not Active | 
6 | CCOC(=O)n1ccn(C)c1=S [CARBIMAZOLE] | Not Active | Not Active | Not Active | Not Active |  |  | Not Active | Not Active | Not Active | Not Active | Not Active | Not Active | 
7 | Oc1ccccc1O [CATECHOL] | Not Active | Not Active | Not Active | Not Active |  |  | Not Active | Not Active | Not Active | Not Active | Not Active | Not Active | 
8 | CO[C@@]1(NC(=O)CSCC#N)C(=O)N2C(C(=O)O)=C(CSc3nnnn3C)CS[C@@H]21 [CEFMETAZOLE] | Not Active | Not Active | Not Active | Not Active |  |  | Not Active | Not Active | Not Active | Not Active | Not Active | Not Active | 
9 | CN(C(=O)CCCOc1ccc2[nH]c(=O)ccc2c1)C1CCCCC1 [CILOSTAMIDE] | Not Active | Not Active | Not Active | Not Active |  |  | Not Active | Not Active | Not Active | Not Active | Not Active | Not Active | 
10 | CC(C)(Oc1ccc(C2CC2(Cl)Cl)cc1)C(=O)O (stereo unspecified) [CIPROFIBRATE] | Not Active | Not Active | Not Active | Not Active |  |  | Not Active | Not Active | Not Active | Not Active | Not Active | Not Active | 
11 | Nc1nc(Cl)nc2c1ncn2[C@H]1C[C@H](O)[C@@H](CO)O1 [CLADRIBINE] | Not Active | Not Active | Not Active | Not Active |  |  | Not Active | Not Active | Not Active | Not Active | Not Active | Not Active | 
12 | CC[C@H]1OC(=O)[C@H](C)[C@@H](O[C@H]2C[C@@](C)(OC)[C@@H](O)[C@H](C)O2)[C@H](C)[C@@H](O[C@@H]2O[C@H](C)C[C@H](N(C)C)[C@H]2O)[C@](C)(OC)C[C@@H](C)C(=O)[C@H](C)[C@@H](O)[C@]1(C)O [CLARITHROMYCIN] | Not Active | Not Active | Not Active | Not Active |  |  | Not Active | Not Active | Not Active | Not Active | Not Active | Not Active | 
13 | CCC[C@@H]1C[C@@H](C(=O)N[C@@H]([C@H]2O[C@H](SC)[C@H](O)[C@@H](O)[C@H]2O)[C@H](C)Cl)N(C)C1 [CLINDAMYCIN] | Not Active | Not Active | Not Active | Not Active |  |  | Not Active | Not Active | Not Active | Not Active | Not Active | Not Active | 
14 | O=C(O)c1cc(=O)c2c(OCC(O)COc3cccc4oc(C(=O)O)cc(=O)c34)cccc2o1 [CROMOLYN] | Not Active | Not Active | Not Active | Not Active |  |  | Not Active | Not Active | Not Active | Not Active | Not Active | Not Active | 
15 | O=P1(N(CCCl)CCCl)NCCCO1 (stereo unspecified) [CYCLOPHOSPHAMIDE ANHYDROUS] | Not Active | Not Active | Not Active | Not Active |  |  | Not Active | Not Active | Not Active | Not Active | Not Active | Not Active | 
16 | CC(=O)O[C@]1(C(C)=O)CC[C@H]2[C@@H]3C=C(Cl)C4=CC(=O)[C@@H]5C[C@@H]5[C@]4(C)[C@H]3CC[C@@]21C [CYPROTERONE ACETATE] | Not Active | Not Active | Not Active | Not Active |  |  | Not Active | Not Active | Not Active | Not Active | Not Active | Not Active | 
17 | Nc1nc(N)nc(NC2CC2)n1 [CYROMAZINE] | Not Active | Not Active | Not Active | Not Active |  |  | Not Active | Not Active | Not Active | Not Active | Not Active | Not Active | 
18 | C#C[C@]1(O)CC[C@H]2[C@@H]3CCC4=Cc5oncc5C[C@]4(C)[C@H]3CC[C@@]21C [DANAZOL] | Not Active | Not Active | Not Active | Not Active |  |  | Not Active | Not Active | Not Active | Not Active | Not Active | Not Active | 

From ChEMBL document CHEMBL1909046, “DrugMatrix in vitro pharmacology data”
